These results are taken from patent publication US8080580B2, “Dioxa-bicyclo[3.2.1]octane-2,3,4-triol derivatives” (Pfizer Inc., priority 2008, dated 2011).

One data set concerns the target T1, hSGLT1 (Homo sapiens, UniProt P13866).
T1 sequence (P13866 1-664): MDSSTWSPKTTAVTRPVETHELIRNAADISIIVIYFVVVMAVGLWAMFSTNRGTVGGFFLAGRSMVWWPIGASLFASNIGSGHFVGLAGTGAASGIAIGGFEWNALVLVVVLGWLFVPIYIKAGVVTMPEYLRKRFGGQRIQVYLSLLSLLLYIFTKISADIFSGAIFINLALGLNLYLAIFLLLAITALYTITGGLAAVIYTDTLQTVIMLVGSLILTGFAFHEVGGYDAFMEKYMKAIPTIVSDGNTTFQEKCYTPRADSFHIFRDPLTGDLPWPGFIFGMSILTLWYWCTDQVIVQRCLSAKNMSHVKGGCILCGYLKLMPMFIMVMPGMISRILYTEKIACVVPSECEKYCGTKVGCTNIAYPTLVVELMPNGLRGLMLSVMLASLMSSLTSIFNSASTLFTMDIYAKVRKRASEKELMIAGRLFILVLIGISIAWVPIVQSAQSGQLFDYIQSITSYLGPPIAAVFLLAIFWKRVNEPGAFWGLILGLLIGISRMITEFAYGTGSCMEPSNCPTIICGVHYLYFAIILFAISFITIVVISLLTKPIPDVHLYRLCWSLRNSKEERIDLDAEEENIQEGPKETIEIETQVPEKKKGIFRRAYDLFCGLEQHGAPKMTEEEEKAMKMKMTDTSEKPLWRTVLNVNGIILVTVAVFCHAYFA
The experiment in a line: SGLT1 functional assay: hSGLT1 IC50 (selectivity counter-screen to the SGLT2 AMG uptake assay). The note with it: individual runs (Run No.). It is filed as cell-based. A general note: Counterscreens check selectivity or assay interference.

A further data set concerns the target T2, human SGLT2 (Homo sapiens, UniProt P31639).
T2 construct: expressed in transfected cells; host or cells: CHO-FlpIn (Invitrogen)
T2 sequence (P31639 1-672): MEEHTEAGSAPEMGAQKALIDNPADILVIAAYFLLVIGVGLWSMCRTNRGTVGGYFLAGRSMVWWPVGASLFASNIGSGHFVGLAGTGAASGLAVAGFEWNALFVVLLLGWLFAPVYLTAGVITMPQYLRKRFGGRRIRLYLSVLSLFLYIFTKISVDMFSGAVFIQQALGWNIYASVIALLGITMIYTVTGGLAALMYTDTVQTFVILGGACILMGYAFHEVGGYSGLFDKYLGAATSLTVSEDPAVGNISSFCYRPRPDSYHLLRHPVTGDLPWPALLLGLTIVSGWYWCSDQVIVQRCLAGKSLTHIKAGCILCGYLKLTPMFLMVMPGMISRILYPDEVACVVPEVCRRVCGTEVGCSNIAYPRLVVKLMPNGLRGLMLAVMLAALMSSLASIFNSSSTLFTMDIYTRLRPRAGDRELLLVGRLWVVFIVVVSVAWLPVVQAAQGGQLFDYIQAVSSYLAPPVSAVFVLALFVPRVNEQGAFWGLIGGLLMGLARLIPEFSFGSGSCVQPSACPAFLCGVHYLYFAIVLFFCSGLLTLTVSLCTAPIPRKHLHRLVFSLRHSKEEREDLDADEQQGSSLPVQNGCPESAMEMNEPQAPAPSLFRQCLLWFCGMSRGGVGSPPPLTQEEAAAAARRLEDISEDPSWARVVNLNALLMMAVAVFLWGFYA
The experiment in a line: SGLT2 functional assay: inhibition of AMG uptake in CHO-FlpIn cells stably expressing human SGLT2. It counts as cell-based. The note with it: individual runs (Run No.), read-out: hSGLT2 IC50. From the text: The SGLT2 functional assay was designed to detect the inhibition of methyl-alpha-D glucopyranoside (AMG—a non-metabolizable form of glucose) uptake via the SGLT2 transporter. The SGLT2 transporter recovers glucose from the proximal tubules of the kidney; its inhibition results in sugar wasted in the urine. The positive control compound, Phlorizin, is a known inhibitor of glucose uptake for SGLT2 and was used for comparing the high percent effect of SGLT2 inhibition of the test compounds.
CHO-FlpIn (Invitrogen, Carlsbad, Calif.) cells stably expressing human SGLT2 (pcDNA5/FRT) were plated in Iso-TC 96 well plates (Perkin Elmer, Waltham, Mass.) at a density of 100,000 cells/well in 100 microL of growth media (1:1 F-12/DMEM media (Gibco, Carlsbad, Calif.), 10% FBS (Sigma, St. Louis Mo.), 1× Pen/Strep (Gibco, Carlsbad, Calif.), 600 microg/mL Hygromycin (Invitrogen, Carlsbad, Calif.)). Prior to treating with test compound, confluent cells were serum starved for 2 hours at 37° C. in 1:1 F-12/DMEM media, replacing with fresh F-12/DMEM media after 1 hour. […] Cell plates were then incubated for 3 hours at 37° C. for AMG uptake.

Data set [1] in a line: Pharmacokinetic testing in rats (IV or PO). It is filed as in vivo. Conditions: male, Sprague Dawley, plasma, rat, IV, 2 mg/kg. Here is the method:
Examples 1A, 2A, 4A, 12A, and 14A were tested in rats to assess pharmacokinetic parameters including maximum concentration (Cmax), area under the plasma concentration time curve (AUC), clearance (CL), steady state volume of distribution (Vss), half life (t1/2), and bioavailability (F). Male Sprague Dawley rats (˜300 g) were used. Rats received compound by intravenous (IV) or oral gavage (PO) administration and the doses tested including vehicle to formulate dosing solutions are listed in Table 5.
Following IV or PO administration, 0.2 mL blood was sampled from the jugular vein at various timepoints (Table 5). Twenty microL aliquots of plasma samples and standards were subjected to protein precipitation with acetonitrile containing an internal standard. Samples were vortexed and centrifuged to obtain supernatant which was analyzed by LC-MS/MS. Analyst (Version 1.4.1) was used to measure peak areas and peak area ratios of analyte to internal standard were calculated. LC-MS/MS conditions are as follows: Mass Spectrometer+Source Type was Sciex API 4000−Turbo Spray; HPLC pump was Shimadzu; Autosampler was CTC PAL Autosampler; Injection volume was 3.0 to 10 microL; A gradient was used with mobile phase A: 10 mM ammonium acetate and 1% Isopropyl alcohol in water; B: Acetonitrile; Flowrate 0.300 mL per minute (Column 2.0×30 mm 5 microm LUNA C18 column (phenomenex)). Detection mode was negative.
A calibration curve was constructed from the peak area ratios of the standards to the internal standard by applying a weighted linear (1/x or 1/x2) regression. The dynamic range of the standard curve was 5.00 ng/mL to 5000 ng/mL.
Pharmacokinetic parameters were determined from individual animal data using non-compartmental analysis in Watson (version 7.2). Concentrations below the limit of quantitation (BLQ) were recorded as 0 ng/mL for use in calculations.
The following calculations were used: AUC(0−τ)=Determined using the linear trapezoidal method AUC(0−□)=AUC(0−τ) plus extrapolated area determined by dividing plasma concentration at τ by the slope of the terminal log-linear phase CL=Dose/AUC(0−∞) Vdss=CL×MRT Cmax=Recorded directly from plasma concentration time curve Tmax=Recorded directly from plasma concentration time curve t½=ln(0.5)/slope of the terminal log-linear phase F %=AUC(0−∞)PO per dose/AUC(0−∞)IV per dose C(0)=Extrapolated by linear regression from the apparent distribution phase following IV administration MRT=AUMC(AUC(0−∞)/AUC(0−∞)

Structures are written as SMILES. pIC50: −log10 of the molar value. Several values for one entry are separate records, joined by “and”; a condition that tells them apart may be missing. Equal values may be shown once. Some results are limits rather than exact numbers.

The pIC50 is the negative decadic logarithm of the IC50, by convention in mol/L. With `COc1ccc(Cc2cc([C@]34OC[C@](CO)(O3)[C@@H](O)[C@H](O)[C@@H]4O)ccc2Cl)cc1` [Example 3B, (1S,2S,3S,4S,5S)-5-[4-chloro-3-(4-methoxy-benzyl)-phenyl]-1-hydroxymethyl-6,8-dioxa-bicyclo[3.2.1]octane-2,3,4-triol], the pIC50 on hSGLT1 is under 5.00; at human SGLT2, 7.38 and 7.39 and 7.55 and 7.21.
Turning to `CCOc1ccc(Cc2cc([C@]34OC[C@](CO)(O3)[C@@H](O)[C@H](O)[C@@H]4O)ccc2Cl)cc1` [Example 4B, (1S,2S,3S,4S,5S)-5-[4-chloro-3-(4-ethoxy-benzyl)-phenyl]-1-hydroxymethyl-6,8-dioxa-bicyclo[3.2.1]octane-2,3,4-triol], the pIC50 was under 5.00 against hSGLT1; 6.91 and 7.18 and 7.09 at human SGLT2.
As to `COc1ccc(Cc2cc([C@]34OC[C@](CO)(O3)[C@@H](O)[C@H](O)[C@H]4O)ccc2F)cc1` [Example 5A, (1S,2S,3S,4R,5S)-5-[4-fluoro-3-(4-methoxy-benzyl)-phenyl]-1-hydroxymethyl-6,8-dioxa-bicyclo[3.2.1]octane-2,3,4-triol], the pIC50 against hSGLT1 is < 5.00 and < 6.00 and 5.24.
`COc1ccc(Cc2cc([C@]34OC[C@](CO)(O3)[C@@H](O)[C@H](O)[C@@H]4O)ccc2F)cc1` [Example 5B, (1S,2S,3S,4S,5S)-5-[4-fluoro-3-(4-methoxy-benzyl)-phenyl]-1-hydroxymethyl-6,8-dioxa-bicyclo[3.2.1]octane-2,3,4-triol]: the pIC50 against hSGLT1 was under 5.00; at human SGLT2 it was 6.73.
Take `COc1ccc(Cc2cc([C@]34OC[C@](CO)(O3)[C@@H](O)[C@H](O)[C@H]4O)ccc2C#N)cc1` [Example 6A, 2-(4-methoxybenzyl)-4-((1S,2S,3S,4R,5S)-2,3,4-trihydroxy-1-(hydroxymethyl)-6,8-dioxa-bicyclo[3,2,1]oct-5-yl)-benzonitrile]: the pIC50 against hSGLT1 was < 5.00 and < 6.00 and 5.05; on human SGLT2 it was 7.73 and 8.00 and 7.87 and 8.24 and 8.12.
For `CCOc1ccc(Cc2cc([C@]34OC[C@](CO)(O3)[C@@H](O)[C@H](O)[C@H]4O)ccc2C#N)cc1` [Example 7A, 2-(4-ethoxybenzyl)-4-((1S,2S,3S,4R,5S)-2,3,4-trihydroxy-1-(hydroxymethyl)-6,8-dioxa-bicyclo[3,2,1]oct-5-yl)-benzonitrile], the pIC50 at hSGLT1 was under 5.00; at human SGLT2, 7.97 and 8.20 and 8.23 and 8.21.
In turn, `CCOc1ccc(Cc2cc([C@]34OC[C@](CO)(O3)[C@@H](O)[C@H](O)[C@H]4O)ccc2F)cc1` [Example 10A] showed a negative-log IC50 (pIC50) against hSGLT1 of under 5.00.
On to `CCOc1ccc(Cc2cc([C@]34OC[C@](CO)(O3)[C@@H](O)[C@H](O)[C@@H]4O)ccc2F)cc1` [Example 10B, (1S,2S,3S,4S,5S)-5-[3-(4-ethoxy-benzyl)-4-fluoro-phenyl]-1-hydroxymethyl-6,8-dioxa-bicyclo[3.2.1]octane-2,3,4-triol], for which the negative logarithm of the IC50 (pIC50) against hSGLT1 was under 5.00; on human SGLT2 it was 6.90 and 6.99.
For the molecule `OC[C@@]12CO[C@@](c3ccc(F)c(Cc4ccc(OC5CCOC5)cc4)c3)(O1)[C@H](O)[C@@H](O)[C@@H]2O` (stereo partly drawn) [Example 11A, (1S,2S,3S,4R,5S)-5-{4-fluoro-3-[4-(tetrahydro-furan-3-yloxy)-benzyl]-phenyl}-1-hydroxymethyl-6,8-dioxa-bicyclo[3.2.1]octane-2,3,4-triol], the pIC50 at hSGLT1 is under 5.00; on human SGLT2, 8.02 and 7.92 and 7.70 and 8.15.
One may read the AUC(0-inf) as the area under the concentration-time curve extrapolated to infinity. One may read the half-life as how long it takes for the measured level to halve. Low readings indicate fast loss, high ones slow loss. For `OC[C@@]12CO[C@@](c3ccc(F)c(Cc4ccc(Cl)cc4)c3)(O1)[C@H](O)[C@@H](O)[C@@H]2O` [Example 12A, (1S,2S,3S,4R,5S)-5-[3-(4-chlorobenzyl)-4-fluorophenyl]-1-hydroxymethyl-6,8-dioxabicyclo[3.2.1]octane-2,3,4-triol], in data set [1], the AUC(0-inf) worked out at 2200 ng·h/mL, the clearance amounted to 15.9 mL/min/kg and the half-life was 3.9 h. For the same molecule, the Vd in data set [1] (read-out: Vss) turned out to be 3.68 L/kg. Also, the pIC50 against hSGLT1 was < 5.00 and 5.24.
As for `OC[C@@]12CO[C@@](c3ccc(F)c(Cc4ccc(Cl)cc4)c3)(O1)[C@@H](O)[C@@H](O)[C@@H]2O` [Example 12B, (1S,2S,3S,4S,5S)-5-[3-(4-chlorobenzyl)-4-fluorophenyl]-1-hydroxymethyl-6,8-dioxabicyclo[3.2.1]octane-2,3,4-triol], the results for the pIC50 against hSGLT1 and at human SGLT2 were under 5.50 and 7.49, respectively.
